Results: publication PMC4809247 (Journal of medicinal chemistry, 2015)

What was measured:
rat mGlu5 = rat mGlu5 (Rattus norvegicus, UniProt P31424); test: Calcium mobilization mGlu5 assay; format: cell-based; details: for mGlu5 pEC50 (± SEM): calcium mobilization, average of n ≥ 3 (n = 2 where marked)
[1] = Intrinsic clearance in rat liver microsomes; format: in vitro ADME; details: predicted hepatic clearance based on intrinsic clearance in rat liver microsomes
rat mGlu3 = rat mGlu3 (Rattus norvegicus, UniProt P31422); details: calcium mobilization; average of n ≥ 3
Chain of rat mGlu3 (P31422 23-879): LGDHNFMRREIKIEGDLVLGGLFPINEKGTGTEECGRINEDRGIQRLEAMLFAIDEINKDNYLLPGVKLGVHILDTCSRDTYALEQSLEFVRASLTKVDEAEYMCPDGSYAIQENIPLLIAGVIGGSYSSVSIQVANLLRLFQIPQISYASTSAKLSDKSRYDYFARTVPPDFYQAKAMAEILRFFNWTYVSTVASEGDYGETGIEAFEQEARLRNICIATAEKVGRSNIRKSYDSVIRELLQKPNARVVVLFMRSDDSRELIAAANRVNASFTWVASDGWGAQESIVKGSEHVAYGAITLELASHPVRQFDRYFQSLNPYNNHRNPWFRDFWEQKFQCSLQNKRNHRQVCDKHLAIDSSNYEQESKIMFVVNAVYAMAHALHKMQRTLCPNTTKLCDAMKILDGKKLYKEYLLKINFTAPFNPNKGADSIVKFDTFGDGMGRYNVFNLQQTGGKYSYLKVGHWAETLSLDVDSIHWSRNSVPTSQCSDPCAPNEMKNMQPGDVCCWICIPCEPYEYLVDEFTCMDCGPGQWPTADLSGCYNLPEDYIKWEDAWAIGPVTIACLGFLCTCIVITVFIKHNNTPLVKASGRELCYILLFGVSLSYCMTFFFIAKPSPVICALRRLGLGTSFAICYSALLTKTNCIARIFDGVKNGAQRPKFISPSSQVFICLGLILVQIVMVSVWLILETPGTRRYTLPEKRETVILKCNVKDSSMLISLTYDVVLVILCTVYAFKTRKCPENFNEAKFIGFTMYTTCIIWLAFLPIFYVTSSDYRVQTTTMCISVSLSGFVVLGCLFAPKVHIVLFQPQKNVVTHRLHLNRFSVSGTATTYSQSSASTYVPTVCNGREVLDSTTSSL

Chain of rat mGlu5 (P31424 21-1203): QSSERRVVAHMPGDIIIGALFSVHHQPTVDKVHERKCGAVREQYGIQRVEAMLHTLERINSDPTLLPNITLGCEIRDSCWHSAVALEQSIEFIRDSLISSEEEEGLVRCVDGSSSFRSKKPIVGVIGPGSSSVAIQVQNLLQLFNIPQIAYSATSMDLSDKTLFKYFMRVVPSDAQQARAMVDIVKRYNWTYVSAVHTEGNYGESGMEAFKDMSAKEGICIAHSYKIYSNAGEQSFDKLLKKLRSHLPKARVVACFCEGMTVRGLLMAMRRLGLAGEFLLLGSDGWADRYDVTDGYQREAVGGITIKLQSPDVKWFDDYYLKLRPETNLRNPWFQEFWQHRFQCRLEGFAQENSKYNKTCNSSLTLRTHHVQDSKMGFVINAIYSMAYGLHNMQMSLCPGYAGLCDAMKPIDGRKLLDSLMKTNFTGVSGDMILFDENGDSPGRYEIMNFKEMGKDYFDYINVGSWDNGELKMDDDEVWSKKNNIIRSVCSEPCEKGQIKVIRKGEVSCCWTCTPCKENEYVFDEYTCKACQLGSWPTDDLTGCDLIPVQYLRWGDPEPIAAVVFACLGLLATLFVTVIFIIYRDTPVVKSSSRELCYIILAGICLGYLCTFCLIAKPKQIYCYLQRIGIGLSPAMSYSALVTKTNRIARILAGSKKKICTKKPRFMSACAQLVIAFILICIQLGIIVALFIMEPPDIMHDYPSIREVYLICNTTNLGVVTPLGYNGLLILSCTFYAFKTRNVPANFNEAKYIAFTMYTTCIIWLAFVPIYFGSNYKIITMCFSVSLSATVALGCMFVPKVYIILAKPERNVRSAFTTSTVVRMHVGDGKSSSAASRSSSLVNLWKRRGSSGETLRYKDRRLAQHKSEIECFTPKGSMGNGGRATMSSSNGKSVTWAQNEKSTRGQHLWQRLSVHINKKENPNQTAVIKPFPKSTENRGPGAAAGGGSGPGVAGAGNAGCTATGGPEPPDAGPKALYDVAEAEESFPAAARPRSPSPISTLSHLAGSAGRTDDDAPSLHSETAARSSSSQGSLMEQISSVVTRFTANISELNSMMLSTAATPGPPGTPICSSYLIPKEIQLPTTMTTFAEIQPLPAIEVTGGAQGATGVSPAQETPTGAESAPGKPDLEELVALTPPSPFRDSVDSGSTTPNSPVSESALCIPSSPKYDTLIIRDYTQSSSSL

Structure (SMILES) | mGlu5 pEC50 (± SEM) (rat mGlu5) | mGlu3 pIC50 (± SEM) (rat mGlu3) | other results
C[C@@H]1CN(c2cnccc2F)C(=O)c2cc(COc3ccc(Cl)cn3)nn21 [Compound 107] | <4.5 | 6.32 ± 0.03 | rat CLhep [1]: 36.0 mL/min/kg
CCOc1ccc(OCc2cc3n(n2)[C@H](C)CN(c2ccc(F)cc2)C3=O)cc1 [Compound 38] | <4.5 | 5.94 ± 0.06 | mGlu5: no activity up to the highest concentration tested (rat mGlu5): > 30 µM
C[C@@H]1CN(c2cccc(Cl)c2)C(=O)c2cc(COc3ccc(F)cn3)nn21 [Compound 58] | – | – | rat CLhep [1]: 51.9 mL/min/kg
C[C@@H]1CN(c2ccc(F)cc2)C(=O)c2cc(COc3ccc(F)cn3)nn21 [Compound 47] | – | 6.27 ± 0.02 | –
C[C@@H]1CN(c2cccnc2)C(=O)c2cc(COc3ccc(F)cn3)nn21 [Compound 70] | – | 6.36 ± 0.13 | –
C[C@@H]1CN(c2cncc(F)c2)C(=O)c2cc(COc3ccc(Cl)cn3)nn21 [Compound 108] | <4.5 | – | rat CLhep [1]: 26.6 mL/min/kg
C[C@@H]1CN(c2ccc(F)cc2F)C(=O)c2cc(COc3ccc(Cl)cn3)nn21 [Compound 95] | – | 6.55 ± 0.08 | –
C[C@@H]1CN(c2ccc(F)cn2)C(=O)c2cc(COc3ccc(Cl)cn3)nn21 [Compound 104] | – | 6.59 ± 0.09 | –
C[C@@H]1CN(c2ncccc2F)C(=O)c2cc(COc3ccc(Cl)cn3)nn21 [Compound 102] | – | 6.44 ± 0.03 | –
C[C@@H]1CN(c2ccccn2)C(=O)c2cc(COc3ccc(Cl)cn3)nn21 [Compound 100] | <4.5 | 6.48 ± 0.07 | rat CLhep [1]: 69.5 mL/min/kg
C[C@@H]1CN(c2cccc(C#N)c2)C(=O)c2cc(COc3ccc(Cl)cn3)nn21 [Compound 92] | – | 6.08 ± 0.26 | –
COc1cccnc1OCc1cc2n(n1)[C@H](C)CN(c1ccc(F)cc1)C2=O [Compound 43] | <4.5 | – | mGlu5: no activity up to the highest concentration tested (rat mGlu5): > 30 µM
Cc1ccccc1OCc1cc2n(n1)[C@H](C)CN(c1ccc(F)cc1)C2=O [Compound 26] | 5.83 ± 0.04 | – | –
C[C@@H]1CN(c2ccc(F)cc2)C(=O)c2cc(COc3ncccc3C(F)(F)F)nn21 [Compound 42] | <4.5 | – | mGlu5: no activity up to the highest concentration tested (rat mGlu5): > 30 µM
CCc1ccc(OCc2cc3n(n2)[C@H](C)CN(c2ccc(F)cc2)C3=O)cc1 [Compound 36] | 5.49 ± 0.03 | – | –
C[C@@H]1CN(c2ccc(F)cc2)C(=O)c2cc(COc3cc(C(F)(F)F)ccn3)nn21 [Compound 45] | – | 5.78 ± 0.01 | –
C[C@@H]1CN(c2cccc(Cl)c2)C(=O)c2cc(COc3ccc(Cl)cn3)nn21 [Compound 83] | – | 6.25 ± 0.07 | –
C[C@@H]1CN(c2ccccc2F)C(=O)c2cc(COc3ccc(Cl)cn3)nn21 [Compound 80] | – | 6.65 ± 0.04 | –
C[C@@H]1CN(c2ccc(F)cc2)C(=O)c2cc(COc3ccc(C(F)(F)F)cc3)nn21 [Compound 35] | <4.5 | 5.73 ± 0.01 | –
C[C@@H]1CN(c2cccc(F)c2F)C(=O)c2cc(COc3ccc(F)cn3)nn21 [Compound 66] | – | 6.73 ± 0.16 | rat CLhep [1]: 63.6 mL/min/kg
C[C@@H]1CN(c2ccc(Cl)cc2)C(=O)c2cc(COc3ccc(Cl)cn3)nn21 [Compound 84] | – | 5.91 ± 0.25 | –

Structure (SMILES) | mGlu5 pEC50 (± SEM) (rat mGlu5) | mGlu3 pIC50 (± SEM) (rat mGlu3) | other results
COc1cccc(OCc2cc3n(n2)[C@H](C)CN(c2ccc(F)cc2)C3=O)c1 [Compound 33] | 5.74 ± 0.04 | – | –
C[C@@H]1CN(c2cccc(F)n2)C(=O)c2cc(COc3ccc(Cl)cn3)nn21 [Compound 105] | – | 6.53 ± 0.08 | –
C[C@@H]1CN(c2ccc(F)cc2)C(=O)c2cc(COc3ncccc3F)nn21 [Compound 41] | – | 5.96 ± 0.02 | –
C[C@@H]1CN(c2ccccc2C#N)C(=O)c2cc(COc3ccc(Cl)cn3)nn21 [Compound 91] | – | 6.37 ± 0.05 | –
C[C@@H]1CN(c2ccc(F)cc2)C(=O)c2cc(COc3ccc(F)cc3F)nn21 [Compound 25] | 6.51 ± 0.05 | 6.38 ± 0.22 | –
C[C@@H]1CN(c2ccc(C#N)cc2)C(=O)c2cc(COc3ccc(Cl)cn3)nn21 [Compound 93] | – | 6.27 ± 0.05 | –
COc1ccccc1OCc1cc2n(n1)[C@H](C)CN(c1ccc(F)cc1)C2=O [Compound 32] | – | 5.59 ± 0.18 | –
C[C@@H]1CN(c2ccncc2)C(=O)c2cc(COc3ccc(F)cn3)nn21 [Compound 71] | <4.5 | 6.05 ± 0.04 | –
C[C@@H]1CN(c2ccccc2Cl)C(=O)c2cc(COc3ccc(Cl)cn3)nn21 [Compound 82] | – | 6.48 ± 0.08 | –
COc1cccc(N2C[C@@H](C)n3nc(COc4ccc(F)cn4)cc3C2=O)c1 [Compound 64] | – | 6.70 ± 0.06 | –
C[C@@H]1CN(c2ccc(Cl)cc2)C(=O)c2cc(COc3ccc(F)cn3)nn21 [Compound 59] | – | 6.71 ± 0.13 | –
C[C@@H]1CN(c2ccccc2Cl)C(=O)c2cc(COc3ccc(F)cn3)nn21 [Compound 57] | – | 6.85 ± 0.16 | rat CLhep [1]: 66.5 mL/min/kg
COc1cccc(N2C[C@@H](C)n3nc(COc4ccc(Cl)cn4)cc3C2=O)c1 [Compound 89] | – | 6.50 ± 0.05 | –
C[C@@H]1CN(c2cccc(F)c2)C(=O)c2cc(COc3ccc(F)cn3)nn21 [Compound 56] | – | 6.72 ± 0.08 | rat CLhep [1]: 53.0 mL/min/kg
Cc1cccc(N2C[C@@H](C)n3nc(COc4ccc(F)cn4)cc3C2=O)c1 [Compound 61] | – | 6.67 ± 0.15 | rat CLhep [1]: 58.4 mL/min/kg
C[C@@H]1CN(c2cc(F)cc(F)c2)C(=O)c2cc(COc3ccc(Cl)cn3)nn21 [Compound 97] | – | 6.38 ± 0.07 | –
C[C@@H]1CN(c2ccc(F)cc2)C(=O)c2cc(COc3ccccc3)nn21 [Compound 18] | 7.34 ± 0.02 | 6.57 ± 0.15 | fold preference for mGlu5 vs mGlu3 activity (rat mGlu5): ~6 fold
C[C@@H]1CN(c2ccc(F)cc2)C(=O)c2cc(COc3ccc(OC(F)(F)F)cc3)nn21 [Compound 39] | <4.5 | 5.39 ± 0.04 | mGlu5: no activity up to the highest concentration tested (rat mGlu5): > 30 µM
Cc1cccc(N2C[C@@H](C)n3nc(COc4ccc(Cl)cn4)cc3C2=O)c1 [Compound 86] | – | 6.41 ± 0.05 | –
C[C@@H]1CN(c2ccc(F)cc2)C(=O)c2cc(COc3ccccc3F)nn21 [Compound 22] | 6.71 ± 0.04 | 6.28 ± 0.20 | –
C[C@@H]1CN(c2ccc(F)cc2)C(=O)c2cc(COc3ccccc3Cl)nn21 [Compound 29] | – | 6.27 ± 0.18 | –

Structure (SMILES) | mGlu5 pEC50 (± SEM) (rat mGlu5) | mGlu3 pIC50 (± SEM) (rat mGlu3) | other results
C[C@@H]1CN(c2cccc(F)c2)C(=O)c2cc(COc3ccc(Cl)cn3)nn21 [Compound 81] | – | 6.69 ± 0.04 | –
C[C@@H]1CN(c2ccc(F)cn2)C(=O)c2cc(COc3ccc(F)cn3)nn21 [Compound 72] | – | 6.46 ± 0.07 | –
C[C@@H]1CN(c2ccc(F)cc2)C(=O)c2cc(COc3ccc(C#N)cc3)nn21 [Compound 37] | 5.71 ± 0.06 | 6.11 ± 0.12 | –
C[C@@H]1CN(c2ccc(F)cc2)C(=O)c2cc(COc3cccc(C(F)(F)F)n3)nn21 [Compound 50] | <4.5 | 5.63 ± 0.02 | mGlu5: no activity up to the highest concentration tested (rat mGlu5): > 30 µM
C[C@@H]1CN(c2ncccc2C#N)C(=O)c2cc(COc3ccc(Cl)cn3)nn21 [Compound 103] | <4.5 | – | –
Cc1cccc(OCc2cc3n(n2)[C@H](C)CN(c2ccc(F)cc2)C3=O)n1 [Compound 49] | – | 5.62 ± 0.02 | –
COc1ccnc(OCc2cc3n(n2)[C@H](C)CN(c2ccc(F)cc2)C3=O)c1 [Compound 46] | – | 5.43 ± 0.00 | –
C[C@@H]1CN(c2cncc(C#N)c2)C(=O)c2cc(COc3ccc(Cl)cn3)nn21 [Compound 109] | <4.5 | 6.22 ± 0.01 | rat CLhep [1]: 22.8 mL/min/kg
Cc1ccnc(OCc2cc3n(n2)[C@H](C)CN(c2ccc(F)cc2)C3=O)c1 [Compound 44] | – | 5.68 ± 0.01 | –
C[C@@H]1CN(c2ccccc2F)C(=O)c2cc(COc3ccc(F)cn3)nn21 [Compound 55] | – | – | rat CLhep [1]: 64.7 mL/min/kg
C[C@@H]1CN(c2cc(F)ccc2C#N)C(=O)c2cc(COc3ccc(Cl)cn3)nn21 [Compound 98] | <4.5 | 6.28 ± 0.06 | mGlu5: no activity up to the highest concentration tested (rat mGlu5): > 30 µM
COc1ccc(OCc2cc3n(n2)[C@H](C)CN(c2ccc(F)cc2)C3=O)cc1 [Compound 34] | 5.87 ± 0.16 | 5.98 ± 0.02 | –
C[C@@H]1CN(c2cccnc2)C(=O)c2cc(COc3ccc(Cl)cn3)nn21 [Compound 101] | <4.5 | 6.22 ± 0.10 | rat CLhep [1]: 42.0 mL/min/kg
Cc1ccc(N2C[C@@H](C)n3nc(COc4ccc(Cl)cn4)cc3C2=O)cc1 [Compound 87] | – | 6.39 ± 0.21 | –
C[C@@H]1CN(c2ccc(F)cc2)C(=O)c2cc(COc3cccc(F)c3)nn21 [Compound 23] | 7.14 ± 0.02 | 6.11 ± 0.03 | –
C[C@@H]1CN(c2c(F)cccc2F)C(=O)c2cc(COc3ccc(F)cn3)nn21 [Compound 68] | – | – | rat CLhep [1]: 64.6 mL/min/kg
Cc1ccc(OCc2cc3n(n2)[C@H](C)CN(c2ccc(F)cc2)C3=O)cc1 [Compound 28] | 5.97 ± 0.04 | 5.92 ± 0.02 | –
C[C@@H]1CN(c2cc(F)ccc2F)C(=O)c2cc(COc3ccc(F)cn3)nn21 [Compound 67] | – | – | rat CLhep [1]: 49.6 mL/min/kg
Cc1ccccc1N1C[C@@H](C)n2nc(COc3ccc(Cl)cn3)cc2C1=O [Compound 85] | – | 6.24 ± 0.18 | –
COc1ccc(N2C[C@@H](C)n3nc(COc4ccc(F)cn4)cc3C2=O)cc1 [Compound 65] | – | 6.49 ± 0.10 | –
